Series [1] in a line: Circular dichroism, α-helix content. It counts as physicochemical. Conditions: for % Helix (α-helix content): from CD ellipticity at 222 nm, 4° C., pH 7.5. As to the method:
CD spectra were measured using an Aviv model 62DS spectropolarimeter. Samples were prepared in 10 mM potassium phosphate buffer, pH 7.5 and 100 mM KF, and temperature was maintained at 4° C. unless described otherwise. Spectra were recorded from 320 nm to 190 nm using a 1 cm pathlength cuvette and the signal was averaged for 10 sec. Scans were repeated five times and averaged. Peptide concentrations were typically 5-20 μM and ellipticity was calculated per amino acid residue.
(§1) FIG. 3C. Relationship between helix content of the Rev34-50 peptides and RNA-binding specificity. Apparent Kd s (the peptide concentration at which 50% of the RNA was shifted) were determined for wild-type (specific; Ksp) and mutant (nonspecific; Knonsp) IIB RNAs from the date in FIGS. 3A and 3B. Specificity, the ratio of specific to nonspecific apparent association constants (Ka s) is plotted against the helix content for each peptide, determined from the CD ellipticity at 222 nm (Chen et al., (1974) "Determination of the Helix and Beta Form of Proteins in Aqueous Solution by Circular Dichroism" Biochemistry 13:3350-3359 ) Peptide I: helix=0.1%; ksp =2000 nM; Knonsp =3000 nM. Peptide II: helix=3.9%; Ksp =300 nM; Knonsp =2000 nM. Peptide III: helix=10.9%; Ksp =100 nM; Knonsp =2000 nM. Peptide IV: helix=27.9%; Ksp =40 nM; Knonsp =2000 nM. Peptide V: helix=51.2%; Ksp =20 nM; Knonsp 1500 nM.

In series [2] the target is wild-type RRE IIB RNA. In kind it is binding, HIV-1. The note with it: for Kd: read-out: Ksp (apparent Kd, wild-type IIB RNA). As to the method: (§2) Gel shift assays were performed at 4° C. unless described otherwise. Peptide and RNA were incubated together for 15 min on ice in 10 μl binding reactions containing 10 mM HEPES-KOH, pH 7.5, 100 mM KCl, 1 mM MgCl2, 0.5 mM EDTA, 1 mM dithithreitol, 50 μg/ml E. coli tRNA, and 10% glycerol. To determine relative binding affinities, 0.5 nM radiolabeled IIB RNA (or IIB mutant) was titrated with peptide. Peptide-RNA complexes were resolved in 10% polyacrylamide, 0.5x TBE gels that had been prerun for 1 hr and allowed to cool to 4° C. Gels were electrophoresed at 220 V for 3 hr at 4° C., dried, and autoradiographed.
as §1

Series [3] deals with mutant (C46-G74) IIB RNA. It counts as binding, HIV-1. The note with it: for Kd: read-out: Knonsp (apparent Kd, mutant IIB RNA). As to the method:
as §2, §1

The test system of series [4] is IIB RNA mutant A47 (G47 to A47). Nature of the series: RNA-binding gel shift assay, A47 mutant IIB RNA. The arrangement: species or system HIV-1. The note with it: in the presence of tRNA. The protocol:
as §2
(§3) FIG. 1B. Peptide binding to IIB mutants. Binding reactions were carried out in the presence of tRNA at the peptide concentrations indicated, and free RNA and peptide-RNA complexes were resolved by the gel shift assay. Each pair of lanes corresponds to RNA alone and peptide-RNA binding reactions. […]. The wild-type lanes on both sides of the gel are identical. The slower mobility of the A71 mutant in the absence of peptide may indicate that its unbound conformation is different than wild-type IIB. […] This phenomenon has been seen with other mutant RNAs and with mutant Rev peptides, and has been interpreted as differences in RNA conformation between specific and nonspecific complexes (Kjems et al. (1992), supra).
For orientation: Mobility shift assays separate free from complexed probe on a gel.

Series [5] has as its system IIB RNA mutant A71 (G71 to A71). Kind of series: RNA-binding gel shift assay, A71 mutant IIB RNA. Set-up: species or system HIV-1. The note with it: in the presence of tRNA. The protocol: as §2, §3

Entries after “also recorded” stand apart in the source; their conditions may differ. Residues, ends and D or L forms follow the SMILES beside them.

`C[C@H](NC(=O)[C@H](CCC(N)=O)NC(=O)[C@H](CCCNC(=N)N)NC(=O)[C@@H](N)[C@@H](C)O)C(=O)N[C@@H](CCCNC(=N)N)C(=O)N[C@@H](CCCNC(=N)N)C(=O)N[C@@H](CC(N)=O)C(=O)N[C@@H](CCCNC(=N)N)C(=O)N[C@@H](CCCNC(=N)N)C(=O)N[C@@H](CCCNC(=N)N)C(=O)N[C@@H](CCCNC(=N)N)C(=O)N[C@@H](Cc1c[nH]c2ccccc12)C(=O)N[C@@H](CCCNC(=N)N)C(=O)N[C@@H](CCC(=O)O)C(=O)N[C@@H](CCCNC(=N)N)C(=O)N[C@@H](CCC(N)=O)C(=O)N[C@@H](CCCNC(=N)N)C(N)=O` [Peptide II, N-Rev34-50 --am] (H-TRQARRNRRRRWRERQR-NH2): the “% Helix (α-helix content)” value in series [1] was 3.9%; in series [1] (listed as N-Rev34-50 --am), “approximately 4%”. Also, the Kd came to 0.3 µM in series [2] and 2 µM in series [3].

Consider `C[C@H](NC(=O)[C@H](CCC(N)=O)NC(=O)[C@H](CCCNC(=N)N)NC(=O)[C@@H](N)[C@@H](C)O)C(=O)N[C@@H](CCCNC(=N)N)C(=O)N[C@@H](CCCNC(=N)N)C(=O)N[C@@H](CC(N)=O)C(=O)N[C@@H](CCCNC(=N)N)C(=O)N[C@@H](CCCNC(=N)N)C(=O)N[C@@H](CCCNC(=N)N)C(=O)N[C@@H](CCCNC(=N)N)C(=O)N[C@@H](Cc1c[nH]c2ccccc12)C(=O)N[C@@H](CCCNC(=N)N)C(=O)N[C@@H](CCC(=O)O)C(=O)N[C@@H](CCCNC(=N)N)C(=O)N[C@@H](CCC(N)=O)C(=O)N[C@@H](CCCNC(=N)N)C(N)=O` [Rev34-50] (H-TRQARRNRRRRWRERQR-NH2), for which the “Reduction of affinity compared to wild-type IIB” value is “about 10 fold” in series [4]; “about 10 fold” in series [5]; “about 10 fold” in series [3] (C46-G74 base pair mutant, in the presence of tRNA).

Consider `C[C@H](NC(=O)[C@H](CCC(N)=O)NC(=O)[C@H](CCCNC(=N)N)NC(=O)[C@@H](N)[C@@H](C)O)C(=O)N[C@@H](CCCNC(=N)N)C(=O)N[C@@H](CCCNC(=N)N)C(=O)N[C@@H](CC(N)=O)C(=O)N[C@@H](CCCNC(=N)N)C(=O)N[C@@H](CCCNC(=N)N)C(=O)N[C@@H](CCCNC(=N)N)C(=O)N[C@@H](CCCNC(=N)N)C(=O)N[C@@H](Cc1c[nH]c2ccccc12)C(=O)N[C@@H](CCCNC(=N)N)C(=O)N[C@@H](CCC(=O)O)C(=O)N[C@@H](CCCNC(=N)N)C(=O)N[C@@H](CCC(N)=O)C(=O)N[C@@H](CCCNC(=N)N)C(=O)O` [Peptide I] (H-TRQARRNRRRRWRERQR-OH), for which the “α-helix content by CD (in words)” value in series [1] (CD spectra) is “mostly unstructured”. Further, in series [1], the “% Helix (α-helix content)” value is on record as 0.1%. In addition, in series [2], the “specific RNA binding / discrimination between wild-type and mutant IIB RNAs (in words)” value was “binds only slightly better to wild-type IIB than to the mutant RNA; also recorded: essentially unable to discriminate between wild-type and mutant RNAs”; the Kd came to 2 µM. Also, the Kd in series [3] stood at 3 µM.

With `CC(=O)N[C@H](C(=O)N[C@@H](CCCNC(=N)N)C(=O)N[C@@H](CCC(N)=O)C(=O)N[C@@H](C)C(=O)N[C@@H](CCCNC(=N)N)C(=O)N[C@@H](CCCNC(=N)N)C(=O)N[C@@H](CC(N)=O)C(=O)N[C@@H](CCCNC(=N)N)C(=O)N[C@@H](CCCNC(=N)N)C(=O)N[C@@H](CCCNC(=N)N)C(=O)N[C@@H](CCCNC(=N)N)C(=O)N[C@@H](Cc1c[nH]c2ccccc12)C(=O)N[C@@H](CCCNC(=N)N)C(=O)N[C@@H](CCC(=O)O)C(=O)N[C@@H](CCCNC(=N)N)C(=O)N[C@@H](CCC(N)=O)C(=O)N[C@@H](CCCNC(=N)N)C(N)=O)[C@@H](C)O` [Peptide III] (Ac-TRQARRNRRRRWRERQR-NH2), in series [1], the “% Helix (α-helix content)” value stood at 10.9%. The Kd in series [2] was 0.1 µM; in series [3], 2 µM.
